From patent US8246966B2, “Trypanosome microsome system and uses thereof” (priority 2006, dated 2012) come the findings set out here.

In one data set the test system is HeLa cells. Nature of the data set: HeLa cell viability, propidium iodide exclusion assay. Type of data set: cell-based, human. On the procedure: HeLa cells, treated with DMSO, MAL3-101, MAL3-51, CJ-21,058 or equisetin, were subject to a propidium iodide viability assay and analyzed by flow cytometry.
HeLa cell line was maintained in RPMI-1640 supplemented with 10% bovine serum, 100 U/ml penicillin/streptomycin, and 2 mM L-glutamine at 37° C. in 5% CO2.
HeLa cell viability assays. Propidium iodide exclusion assay (reviewed in Steff et al., 2001, Cytometry; 45(4):237-43 and Wigg et al., 2003, Anal Biochem; 317(1):19-25) was used to determine HeLa cell viability after drug treatment. Cells were plated at 1×10^4 cells per well (96 well plate) with or without addition of test compounds for the stated time periods, as described for FIGS. 1-4. […] Adherent cells were rinsed with phosphate buffered saline (PBS), trypsinized (37° C. for 5 minutes), pelleted (2,000 g, 2 minutes), resuspended in PBS (500 μl) containing propidium iodide (1 μg/ml), DAPI [4′-6-Diamidino-2-phenylindole] (5 μg/ml) and analyzed by flow cytometry on a Dakocytomation CyAn without gating. Single fluorophore controls were acquired prior to the collection of the experimental data.

The subject of data set [1] is T. brucei microsomes (TbRM). Kind of data set: Post-translational import of VSG—11786 into T. brucei microsomes, proteinase K protection (Example 2). Type of data set: biochemical, Trypanosoma brucei. The note with it: for effect on protein import into TbRM (in words): VSG—11786 substrate. On the procedure:
FIGS. 2A and 2B show the effect of protein translocation inhibitors on TbRM. FIG. 2A presents the protocol used for import of VSG—117500. In FIG. 2B, SG—117500 mRNA was translated in rabbit reticulocyte lysate with 1.5 equivalents T. brucei cytosol (pretreated with MAL3-101 (0.3 μM), MAL3-51 (1 μM), CJ21,058 (20 μM) or equisetin (50 μM)) for 60 minutes. The reaction mixtures were treated with cycloheximide (50 μg/ml, final concentration) and incubated with TbRM (one equivalent). The mixture was incubated for 60 minutes at 37° C. and digested with proteinase K digestion (30 μg/ml, final concentration) for 60 minutes on ice. Proteins were resolved by SDS-PAGE and detected by phosphorimaging. In lanes 1 and 2, TbRM were pretreated with DMSO. Lane 1 is untreated VSG—117500 with TbRM; lane 2 is VSG—117500 incubated with TbRM and treated with proteinase K. In lanes 3 and 4 TbRM were pretreated with MAL3-101. Lane 3 is VSG—117500 incubated with TbRM; lane 4 is VSG—117500 incubated with TbRM and then treated with proteinase K. In lanes 5 and 6 TbRM pretreated with MAL3-51. Lane 5 is VSG—117500 incubated with TbRM; lane 6 is VSG—117500 incubated with TbRM and then treated with proteinase K. In lanes 7 and 8 TbRM were pretreated with CJ-21,058). Lane 7 is VSG—117500 incubated with TbRM; lane 8 is VSG—117500 incubated with ThRM and then treated with proteinase K. In lanes 9 and 10 TbRM were pretreated with equisetin). Lane 9 is VSG—117500 incubated with TbRM; lane 10 is VSG—117500 incubated with TbRM and then treated with proteinase K.
Protein import into TbRM. Two micrograms (μg) of RNA encoding a truncated substrate (e.g., VSG—11786) was translated in […] of a reaction mixture containing 20 μl rabbit reticulocyte lysate, 60 μM amino acid mixture (-Met, -Cys), and 2.4 μCi [^35S]Promix. The reaction was incubated at 37° C. for 15 minutes. Cycloheximide (50 μg/ml, final concentration) was used to stop further translation, and the mixture was divided into two portions. T. brucei microsomes (ThRM) (1 equivalent) was added to one aliquot, and to the other portion an equal volume of RM buffer was added. The reactions were incubated at 37° C. for 45 minutes for protein import into TbRM to take place post-translationally.
Each reaction mixture was divided into three (each 10 μl) and treated with one of the following on ice for one hour: (I) RM buffer; (ii) 30 μg/ml protease K; (iii) nonidet P-40 (NP-40) (2%, final concentration) followed by protease K (30 μg/ml, final concentration). PMSF (20 mM final concentration) was added to stop protease K digestion. Samples were precipitated with an equal volume of cold (NH4)2SO4 sulphate (saturated) and resolved by sodium dodecyl sulfate-polyacrylamide gel electrophoresis (SDS-PAGE) (4% total acrylamide, 3% cross linker in tricene-HCl system) (Fekkes et al., 1998, Mol Microbiol; 29(5):1179-90). The gels were dried, and radioactive polypeptides detected with a phosphorimager (Molecular Imager FX, (BioRad). Data bands were quantitated with QuantityOne software (BioRad), and graphs were plotted with DeltaGraph (Red Rock software).
A small molecule inhibitor of Hsp70-Hsp40 interaction blocks protein translocation into TbRM. Post-translational ER protein translocation in Saccharomyces cerevisiae and E. coli requires cytosolic chaperones. In the yeast S. cerevisiae, for example, Ssa1p (Hsp70) and co-chaperone Ydj1p (Hsp40) (Becker et al., 1996, Mol Cell Biol; 16(8):4378-86; Ngosuwan et al., 2003, J Biol Chem; 278(9):7034-42; and McClellan et al., 1998, Mol Biol Cell; 9(12): 3533-45) as well as Kar2p/BiP stimulate post-translational protein import (Lyman and Schekman, 1995, J Cell Biol; 131(5):1163-71; Panzner et al., 1995, Cell; 81(4):561-70; and Holkeri et al., 1998, J Cell Sci; 111:749-757). […]

Data set [2] has as its system Bloodstream T. brucei CA427. Kind of data set: Bloodstream T. brucei cell culture drug susceptibility (Example 4). The settings on record: cultured bloodstream T. brucei. The data set is classed as cell-based, Trypanosoma brucei. On the procedure: Cell Culture. Bloodstream T. brucei cell culture and drug susceptibility studies were performed as previously described. Bloodstream T. brucei CA427 were cultured in HMI-9 media (Hirumi and Hirumi, 1994, Parasitol Today; 10(2):80-4) to a density of 10^6 cells/ml. Cells were seeded (500 μl of 4×10^4 cells/ml) to a 24-well plate and exposed to MAL3-101, CAM741, and NFI028 at listed concentrations (see figure legends) or an equal volume of DMSO. Cells were incubated at 37° C. and counted after 24 and 48 hours, using a hemocytometer.

Molecules are shown by their SMILES. Entries after “also recorded” stand apart in the source; their conditions may differ. Like-named read-outs stand apart in the source and are kept apart here.

As for `C/C=C/[C@@H]1C=C[C@@H]2C[C@H](C)CC[C@H]2[C@]1(C)/C(O)=C1/C(=O)[C@H](CO)N(C)C1=O` [equisetin], the “effect on human HeLa cells” value with HeLa cells (concentrations that killed one hundred percent T. brucei (IC100)) is reported as “little effect; also recorded: did not have discernible effects”. Also, the HeLa cell viability result in the data set on HeLa cells (equisetin 26 μM) was “neither CJ-21,058 (20 μM) nor equisetin (26 μM) decreased viability of HeLa cells”. Further, the “effect on protein import into TbRM (in words)” value (“effect … (in words)” for short) in data set [1] is reported as “inhibited import”. For the same molecule, in data set [1] (equisetin 25 μM), the “inhibition of translocation of VSG—11786 into TbRM” value came out at 95%.

On to `CCCCCCN(C(=O)CCCCCN1C(=O)NC(c2ccc(-c3ccccc3)cc2)C(C(=O)OCc2ccccc2)=C1C)C(C(=O)NCCCC)c1ccc(OCC(=O)OC)c(C(=O)OC)c1` (centres unmarked) [MAL3-101], for which, in data set [1] (MAL3-101 present (0.3 μM in FIG. 2B legend), DMSO control 80%), the “VSG—11786 translocated into TbRM (protection from proteinase K digestion)” value is 13%. Further, the “effect … (in words)” value in data set [1] is on record as “blocked import”. Further, in data set [2], the “concentration killing all parasites” value came out at 3 µM. In addition, the IC50 in data set [2] (read-out: IG50, T. brucei growth) amounted to 1.5 µM.

For `C/C=C/C1C(C)=CC2CC(C)CCC2C1(C)/C(O)=C1/C(=O)C(CO)N(C)C1=O` (centres unmarked) [CJ-21,058], in the data set on HeLa cells, the “effect on human HeLa cells” value is on record as “little effect”. Besides, the “inhibition of translocation of VSG—11786 into TbRM” value in data set [1] (CJ-21,058 20 μM) came out at 95%. The “effect … (in words)” value in data set [1] is reported as “inhibited import”.
